Series [1] deals with RAF proto-oncogene serine/threonine-protein kinase (Homo sapiens) (UniProt P04049). The experiment in a line: Inhibition of RAF1 (unknown origin) at 10 uM by single point assay.
In series [2] the target is Proto-oncogene tyrosine-protein kinase receptor Ret (Homo sapiens) (UniProt P07949). Description: Inhibition of RET (unknown origin) at 10 uM by single point assay.
Series [3] concerns the target Protein-tyrosine kinase 2-beta (Homo sapiens) (UniProt Q14289). The experiment in a line: Inhibition of PTK2B (unknown origin) at 10 uM by single point assay.
Series [4] has as its target Protein kinase C beta type (Homo sapiens) (UniProt P05771). The experiment in a line: Inhibition of PKCbeta1 (unknown origin) at 10 uM by single point assay.
Series [5] addresses Serine/threonine-protein kinase PLK3 (Homo sapiens) (UniProt Q9H4B4). The experiment in a line: Inhibition of PLK3 (unknown origin) at 10 uM by single point assay.
Series [6] addresses Serine/threonine-protein kinase PLK2 (Homo sapiens) (UniProt Q9NYY3). Description: Inhibition of PLK2 (unknown origin) at 10 uM by single point assay.
For series [7], the target named is Serine/threonine-protein kinase PLK1 (Homo sapiens) (UniProt P53350). Description: Inhibition of PLK1 (unknown origin) at 10 uM by single point assay.
Series [8] concerns the target Mitogen-activated protein kinase 1 (Homo sapiens) (UniProt P28482). The experiment in a line: Inhibition of MAPK1 (unknown origin) at 10 uM by single point assay.
The target in series [9] is T1, Mitogen-activated protein kinase kinase kinase 7 (Homo sapiens) (UniProt O43318).
T1 sequence (whole entry): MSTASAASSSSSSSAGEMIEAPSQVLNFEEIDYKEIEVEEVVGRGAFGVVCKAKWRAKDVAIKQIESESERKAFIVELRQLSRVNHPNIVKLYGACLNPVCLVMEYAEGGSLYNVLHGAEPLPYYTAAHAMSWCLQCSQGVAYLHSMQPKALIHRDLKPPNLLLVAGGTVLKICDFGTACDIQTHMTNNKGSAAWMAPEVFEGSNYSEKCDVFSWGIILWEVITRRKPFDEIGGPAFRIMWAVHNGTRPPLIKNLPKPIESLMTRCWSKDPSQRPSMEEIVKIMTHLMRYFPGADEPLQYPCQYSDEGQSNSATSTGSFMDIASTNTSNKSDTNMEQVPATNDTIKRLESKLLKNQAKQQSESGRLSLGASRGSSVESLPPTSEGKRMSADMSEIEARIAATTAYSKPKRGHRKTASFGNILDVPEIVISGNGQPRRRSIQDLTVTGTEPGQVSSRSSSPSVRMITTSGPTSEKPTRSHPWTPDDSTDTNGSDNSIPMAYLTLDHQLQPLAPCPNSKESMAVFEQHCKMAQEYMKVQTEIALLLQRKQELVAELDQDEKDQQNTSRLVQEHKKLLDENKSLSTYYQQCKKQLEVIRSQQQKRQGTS
The experiment in a line: Inhibition of MAP3K7 (unknown origin) at 10 uM by single point assay.

Series [10] has as its target Tyrosine-protein kinase JAK1 (Homo sapiens) (UniProt P23458). Description: Inhibition of JAK1 (unknown origin) at 10 uM by single point assay.
Series [11] addresses Insulin receptor (Homo sapiens) (UniProt P06213). Description: Inhibition of INSR (unknown origin) at 10 uM by single point assay.
The target of series [12] is Receptor tyrosine-protein kinase erbB-4 (Homo sapiens) (UniProt Q15303). Description: Inhibition of ErbB4 (unknown origin) at 10 uM by single point assay.
Series [13] has as its target Dual specificity protein kinase CLK1 (Homo sapiens) (UniProt P49759). The experiment in a line: Inhibition of CLK1 (unknown origin) at 10 uM by single point assay.
For series [14], the target named is Macrophage colony-stimulating factor 1 receptor (Homo sapiens) (UniProt P07333). Description: Inhibition of CSF1R (unknown origin) at 10 uM by single point assay.
The target of series [15] is Cyclin-dependent kinase 5/CDK5 activator 1 (Homo sapiens) (UniProt Q00535+Q15078). Description: Inhibition of CDK5/p25 (unknown origin) at 10 uM by single point assay. Type of series: protein-complex assay.
Series [16] addresses Cyclin-dependent kinase 1/cyclin B1 (Homo sapiens) (UniProt P06493+P14635). The experiment in a line: Inhibition of CDK1/cyclin B (unknown origin) at 10 uM by single point assay. It counts as protein-complex assay.
The target in series [17] is T2, Aurora kinase A (Homo sapiens) (UniProt O14965).
T2 sequence (whole entry): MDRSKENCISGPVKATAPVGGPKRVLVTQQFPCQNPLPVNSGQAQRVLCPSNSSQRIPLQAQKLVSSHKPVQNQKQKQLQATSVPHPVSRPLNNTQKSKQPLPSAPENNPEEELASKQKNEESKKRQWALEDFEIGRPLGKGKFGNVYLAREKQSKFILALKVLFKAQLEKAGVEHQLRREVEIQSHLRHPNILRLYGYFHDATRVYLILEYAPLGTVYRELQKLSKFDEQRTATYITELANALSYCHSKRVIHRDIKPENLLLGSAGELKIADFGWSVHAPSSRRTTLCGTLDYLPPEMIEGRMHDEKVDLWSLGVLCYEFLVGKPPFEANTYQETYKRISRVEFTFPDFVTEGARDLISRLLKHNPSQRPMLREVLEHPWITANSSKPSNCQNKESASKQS
Description: Inhibition of AURKA (unknown origin) at 10 uM by single point assay.

Another series deals with Brain. The experiment in a line: Drug uptake in brain of mouse expressing mouse LRRK2 G2019S mutant at 30 mg/kg, po. Also noted: dose 30 mg/kg, route oral. The conditions noted are these: in vivo. Type of series: ADME, organism-based.
The test system of the next series is Mus musculus. The experiment in a line: In vivo inhibition of mouse LRRK2 G2019S mutant phosphorylation at Ser935 expressed in mouse brain at 30 mg/kg, po measured after 3 hrs by ELISA. It counts as functional. Background: An ELISA detects its analyte on a solid surface through an enzyme-linked reagent.
Series [18] has as its target Tyrosine-protein kinase SYK (Homo sapiens) (UniProt P43405). Description: Inhibition of SYK (unknown origin) at 1 uM by single point assay.
For series [19], the target named is Receptor-interacting serine/threonine-protein kinase 2 (Homo sapiens) (UniProt O43353). The experiment in a line: Inhibition of RIPK2 (unknown origin) at 1 uM by single point assay.
The target of series [20] is Protein kinase C beta type (Homo sapiens) (UniProt P05771). The experiment in a line: Inhibition of PKCbeta1 (unknown origin) at 1 uM by single point assay.
Series [21] has as its target Cyclin-dependent kinase 2/cyclin A (Homo sapiens) (UniProt P24941+P20248+P78396). Description: Inhibition of CDK2/cyclin A (unknown origin) at 1 uM by single point assay. It counts as protein-complex assay.

The values that follow come from ChEMBL document CHEMBL2346515, “Discovery of 4-alkylamino-7-aryl-3-cyanoquinoline LRRK2 kinase inhibitors” (Bioorg Med Chem Lett, 2013).

Molecules are shown by their SMILES.

Chain of Protein kinase C beta type (Homo sapiens) (P05771 2-671 limits assumed): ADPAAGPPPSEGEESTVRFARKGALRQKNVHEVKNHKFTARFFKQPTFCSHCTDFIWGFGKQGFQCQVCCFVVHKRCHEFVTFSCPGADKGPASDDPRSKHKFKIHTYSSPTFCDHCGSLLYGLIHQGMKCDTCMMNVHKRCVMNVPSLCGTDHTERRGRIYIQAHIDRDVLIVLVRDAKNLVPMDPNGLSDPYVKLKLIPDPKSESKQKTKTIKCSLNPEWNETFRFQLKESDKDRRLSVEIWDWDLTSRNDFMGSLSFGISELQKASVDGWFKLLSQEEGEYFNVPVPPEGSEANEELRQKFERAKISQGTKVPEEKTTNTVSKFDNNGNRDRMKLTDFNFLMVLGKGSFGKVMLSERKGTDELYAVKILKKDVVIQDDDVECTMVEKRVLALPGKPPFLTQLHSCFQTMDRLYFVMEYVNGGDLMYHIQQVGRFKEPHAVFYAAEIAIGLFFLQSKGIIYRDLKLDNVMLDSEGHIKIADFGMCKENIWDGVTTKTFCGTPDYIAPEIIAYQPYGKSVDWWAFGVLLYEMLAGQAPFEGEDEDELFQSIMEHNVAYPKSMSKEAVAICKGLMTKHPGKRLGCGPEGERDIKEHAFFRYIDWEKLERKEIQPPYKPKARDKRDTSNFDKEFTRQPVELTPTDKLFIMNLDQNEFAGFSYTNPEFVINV
Chain of Receptor-interacting serine/threonine-protein kinase 2 (Homo sapiens) (O43353 whole entry): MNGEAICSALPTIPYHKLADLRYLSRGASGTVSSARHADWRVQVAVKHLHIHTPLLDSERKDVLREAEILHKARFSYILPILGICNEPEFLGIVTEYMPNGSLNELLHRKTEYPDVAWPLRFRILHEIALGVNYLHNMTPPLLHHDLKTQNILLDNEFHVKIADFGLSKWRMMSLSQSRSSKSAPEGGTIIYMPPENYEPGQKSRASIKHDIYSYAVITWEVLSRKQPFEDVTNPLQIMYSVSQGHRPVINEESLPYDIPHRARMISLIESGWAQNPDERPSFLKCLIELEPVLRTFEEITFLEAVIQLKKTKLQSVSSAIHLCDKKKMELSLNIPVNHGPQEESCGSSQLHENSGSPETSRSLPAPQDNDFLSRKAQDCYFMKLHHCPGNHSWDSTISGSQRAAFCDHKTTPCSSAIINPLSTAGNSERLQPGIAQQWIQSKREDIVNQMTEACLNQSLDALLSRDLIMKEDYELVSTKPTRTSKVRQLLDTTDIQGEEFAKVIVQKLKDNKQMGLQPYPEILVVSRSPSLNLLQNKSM
Chain of Serine/threonine-protein kinase PLK3 (Homo sapiens) (Q9H4B4 whole entry, looked up): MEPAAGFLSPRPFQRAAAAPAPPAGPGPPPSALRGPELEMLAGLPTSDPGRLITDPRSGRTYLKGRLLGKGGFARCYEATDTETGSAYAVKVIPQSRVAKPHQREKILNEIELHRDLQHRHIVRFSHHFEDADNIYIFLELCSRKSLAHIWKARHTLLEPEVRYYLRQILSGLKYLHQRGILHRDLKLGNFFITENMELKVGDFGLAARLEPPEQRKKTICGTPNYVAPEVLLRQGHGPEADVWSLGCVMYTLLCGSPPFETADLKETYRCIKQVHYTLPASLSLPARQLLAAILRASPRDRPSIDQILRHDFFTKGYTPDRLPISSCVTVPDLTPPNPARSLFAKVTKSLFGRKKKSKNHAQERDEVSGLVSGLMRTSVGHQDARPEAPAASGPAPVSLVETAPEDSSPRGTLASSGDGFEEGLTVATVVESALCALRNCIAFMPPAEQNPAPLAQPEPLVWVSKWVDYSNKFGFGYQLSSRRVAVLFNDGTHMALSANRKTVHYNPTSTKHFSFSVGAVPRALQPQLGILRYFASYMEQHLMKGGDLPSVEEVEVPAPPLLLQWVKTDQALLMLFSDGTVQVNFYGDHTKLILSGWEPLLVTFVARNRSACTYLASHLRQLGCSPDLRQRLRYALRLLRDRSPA
Chain of RAF proto-oncogene serine/threonine-protein kinase (Homo sapiens) (P04049 whole entry): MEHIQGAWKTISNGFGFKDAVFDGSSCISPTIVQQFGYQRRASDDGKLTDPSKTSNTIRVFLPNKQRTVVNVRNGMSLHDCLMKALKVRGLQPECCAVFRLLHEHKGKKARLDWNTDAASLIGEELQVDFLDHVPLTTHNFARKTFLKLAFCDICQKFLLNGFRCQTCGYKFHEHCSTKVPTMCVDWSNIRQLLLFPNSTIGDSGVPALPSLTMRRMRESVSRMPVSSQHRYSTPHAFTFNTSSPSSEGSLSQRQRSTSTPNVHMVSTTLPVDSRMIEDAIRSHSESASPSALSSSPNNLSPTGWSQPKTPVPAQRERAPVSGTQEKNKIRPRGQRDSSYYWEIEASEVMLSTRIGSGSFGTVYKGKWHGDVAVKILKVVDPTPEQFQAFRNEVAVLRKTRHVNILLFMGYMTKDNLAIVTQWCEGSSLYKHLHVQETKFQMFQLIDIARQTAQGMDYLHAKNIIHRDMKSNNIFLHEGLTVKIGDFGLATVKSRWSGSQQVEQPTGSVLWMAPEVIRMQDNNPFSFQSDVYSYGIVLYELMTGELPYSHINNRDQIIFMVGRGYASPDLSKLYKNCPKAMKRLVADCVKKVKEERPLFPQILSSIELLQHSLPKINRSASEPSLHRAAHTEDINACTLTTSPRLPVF
Chain of Serine/threonine-protein kinase PLK1 (Homo sapiens) (P53350 whole entry): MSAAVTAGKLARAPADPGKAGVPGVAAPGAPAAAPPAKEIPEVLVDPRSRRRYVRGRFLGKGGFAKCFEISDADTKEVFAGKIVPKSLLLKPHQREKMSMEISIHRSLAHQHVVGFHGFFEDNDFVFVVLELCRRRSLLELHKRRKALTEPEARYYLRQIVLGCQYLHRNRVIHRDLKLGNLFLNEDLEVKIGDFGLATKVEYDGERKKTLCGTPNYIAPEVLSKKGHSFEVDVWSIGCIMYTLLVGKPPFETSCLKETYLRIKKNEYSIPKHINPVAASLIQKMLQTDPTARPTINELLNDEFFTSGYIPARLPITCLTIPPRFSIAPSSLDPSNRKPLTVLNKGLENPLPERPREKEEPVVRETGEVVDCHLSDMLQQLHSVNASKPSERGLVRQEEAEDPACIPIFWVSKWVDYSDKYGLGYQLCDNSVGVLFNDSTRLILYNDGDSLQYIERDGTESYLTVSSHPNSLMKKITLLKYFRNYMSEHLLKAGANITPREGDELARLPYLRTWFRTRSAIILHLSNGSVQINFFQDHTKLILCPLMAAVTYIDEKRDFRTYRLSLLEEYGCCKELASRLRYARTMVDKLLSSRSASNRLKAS
Chain of Tyrosine-protein kinase JAK1 (Homo sapiens) (P23458 whole entry): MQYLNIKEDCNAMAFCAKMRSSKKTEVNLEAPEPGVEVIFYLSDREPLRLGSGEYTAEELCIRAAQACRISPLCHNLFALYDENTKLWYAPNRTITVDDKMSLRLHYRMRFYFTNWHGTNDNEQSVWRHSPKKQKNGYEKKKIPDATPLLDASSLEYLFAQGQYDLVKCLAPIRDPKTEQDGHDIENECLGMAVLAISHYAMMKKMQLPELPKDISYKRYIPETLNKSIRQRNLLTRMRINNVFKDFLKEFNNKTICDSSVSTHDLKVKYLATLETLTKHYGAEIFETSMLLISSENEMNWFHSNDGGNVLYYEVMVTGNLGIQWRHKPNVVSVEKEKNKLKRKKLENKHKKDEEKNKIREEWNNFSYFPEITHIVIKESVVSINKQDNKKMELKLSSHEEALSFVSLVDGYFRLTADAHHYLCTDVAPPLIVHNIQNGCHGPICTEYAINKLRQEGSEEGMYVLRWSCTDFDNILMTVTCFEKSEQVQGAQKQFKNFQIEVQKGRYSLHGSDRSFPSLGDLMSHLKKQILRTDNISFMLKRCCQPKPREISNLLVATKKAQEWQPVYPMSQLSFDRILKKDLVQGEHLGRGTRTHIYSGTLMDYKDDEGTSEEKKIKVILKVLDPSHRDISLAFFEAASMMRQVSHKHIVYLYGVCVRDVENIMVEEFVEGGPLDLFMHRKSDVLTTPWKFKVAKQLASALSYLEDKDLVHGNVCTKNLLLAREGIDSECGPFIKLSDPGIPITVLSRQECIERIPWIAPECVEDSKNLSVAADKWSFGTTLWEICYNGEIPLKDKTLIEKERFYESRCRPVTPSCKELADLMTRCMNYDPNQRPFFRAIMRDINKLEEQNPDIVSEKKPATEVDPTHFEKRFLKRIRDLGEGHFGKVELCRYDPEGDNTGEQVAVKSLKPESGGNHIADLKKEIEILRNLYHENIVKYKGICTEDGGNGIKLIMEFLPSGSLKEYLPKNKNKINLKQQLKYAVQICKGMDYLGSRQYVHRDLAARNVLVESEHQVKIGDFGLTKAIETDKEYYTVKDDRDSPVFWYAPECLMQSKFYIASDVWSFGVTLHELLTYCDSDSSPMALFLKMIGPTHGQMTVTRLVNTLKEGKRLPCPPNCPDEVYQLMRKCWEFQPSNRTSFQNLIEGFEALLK
Chain of Cyclin-dependent kinase 5/CDK5 activator 1 (Homo sapiens) (Q00535 whole entry): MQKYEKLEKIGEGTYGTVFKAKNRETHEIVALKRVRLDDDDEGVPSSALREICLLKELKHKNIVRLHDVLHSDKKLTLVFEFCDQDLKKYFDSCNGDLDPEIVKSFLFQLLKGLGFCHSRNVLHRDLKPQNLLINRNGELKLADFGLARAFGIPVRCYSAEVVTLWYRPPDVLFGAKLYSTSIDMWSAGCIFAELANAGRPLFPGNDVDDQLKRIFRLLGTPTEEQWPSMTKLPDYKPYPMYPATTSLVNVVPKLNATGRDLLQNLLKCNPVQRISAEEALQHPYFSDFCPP
Chain of Cyclin-dependent kinase 5/CDK5 activator 1 (Homo sapiens) (Q15078 99-307 partner limits assumed): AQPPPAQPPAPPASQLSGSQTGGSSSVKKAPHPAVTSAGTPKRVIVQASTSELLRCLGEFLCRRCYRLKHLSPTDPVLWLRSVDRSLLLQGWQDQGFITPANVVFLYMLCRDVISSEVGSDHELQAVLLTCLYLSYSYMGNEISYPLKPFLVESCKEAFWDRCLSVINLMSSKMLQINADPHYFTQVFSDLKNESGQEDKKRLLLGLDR

What is called inhibition is the change of the read-out against control, counted positive when it falls. For the molecule `C[C@@H](Nc1c(C#N)cnc2cc(-c3ccc(-n4ccoc4=O)cc3)ccc12)C1CC1`, the inhibition in series [1] is 6%; in series [2] it was 12%; in [3] it was 16%; in [4], -2%; in series [5], 6%; in series [6], 54%. Moreover, the inhibition in series [7] is 8%; in series [8] it was -2%; in series [9] it was -5%; in series [10], 4%; in [11], 0%; in series [12] it was 7%. The inhibition came to 7% in series [13]; 39% in series [14]; 5% in [15]; 12% in series [16]; 67% in series [17].

As usually defined, the inhibition in vivo is how much of the control response was suppressed. Lower therefore signals a weak effect. In the case of `CC(C)Nc1c(C#N)cnc2cc(-c3cnn(C)c3)ccc12`, the Drug uptake in the series with Brain came to 4 ng/mL. This molecule came in with an inhibition in vivo at 30 mg/kg in the series on Mus musculus of 30%. Also, the inhibition in [18] is 92%; in series [19], 77%; in series [20], -7%; in [21], 5%.

As to `CC(C)Nc1c(C#N)cnc2cc(-c3ccc(S(C)(=O)=O)cc3)ccc12`, the inhibition in series [18] turned out to be 80%; in [19], 17%; in series [20] it was 19%; in [21], 12%.
